# Data published in PMC8617031, “Development of a BCL-xL and BCL-2 dual degrader with improved anti-leukemic activity,” (Nature Communications, 2021).
# “And” between values parts separate entries of the source, which are not always exact repeats. Identical values can stand only once.
# How the values were obtained:
# BCL-xL = target: T1, BCL-xL (Homo sapiens, UniProt Q07817); test: BCL-xL degradation by immunoblot in 293T cells; type: cell-based; conditions: for normalized BCL-xL protein content at 1 µM: HEK-293T, 293T, 1 μM 753b, Fig. 3d
# T1 construct: endogenous in cells
# T1 sequence (Q07817 whole entry): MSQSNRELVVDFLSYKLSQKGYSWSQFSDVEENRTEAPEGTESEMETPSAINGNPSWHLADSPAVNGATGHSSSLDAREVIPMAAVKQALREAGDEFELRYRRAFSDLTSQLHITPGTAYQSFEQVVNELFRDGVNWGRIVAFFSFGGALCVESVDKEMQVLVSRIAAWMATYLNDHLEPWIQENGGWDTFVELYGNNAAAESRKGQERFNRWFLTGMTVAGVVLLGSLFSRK
# Outline: (§1)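 DC50 and Dmax come from densitometry of western blots of treated 293T cells, normalized to β-actin, mean of 3 independent experiments. Lysates in RIPA, 20–40 μg loaded per lane, HRP chemiluminescence read-out.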
# [1] = target: T2, BCL-xL/PROTAC/VHL-ELOC-ELOB (VCB) ternary complex (Homo sapiens, UniProt P40337+Q07817); test: AlphaLISA ternary complex formation, cell-free, BCL-xL; type: binding; conditions: for AlphaLISA signal, BCL-xL/PROTAC/VCB: Fig. 3e raw Alpha reads
# T2 construct: pGEX-6P-1-VHL(54-213) (pDL2200) was constructed through Gibson assembly method; made in house; host or cells: bacterial culture (LB broth, IPTG induction)
# T2 sequence (Q07817 1-212 limits assumed): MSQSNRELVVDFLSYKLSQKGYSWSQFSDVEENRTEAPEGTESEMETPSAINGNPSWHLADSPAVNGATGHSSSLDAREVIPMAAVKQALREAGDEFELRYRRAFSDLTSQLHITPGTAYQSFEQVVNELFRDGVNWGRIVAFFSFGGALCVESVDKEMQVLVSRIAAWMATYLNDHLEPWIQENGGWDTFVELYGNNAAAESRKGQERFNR
# T2 sequence (P40337 54-213 limits assumed): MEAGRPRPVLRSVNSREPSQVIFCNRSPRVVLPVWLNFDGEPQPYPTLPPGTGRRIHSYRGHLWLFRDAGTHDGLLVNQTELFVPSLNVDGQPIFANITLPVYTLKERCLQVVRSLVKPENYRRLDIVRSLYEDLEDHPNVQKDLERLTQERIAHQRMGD
# T2 sequence (Q15369 17-112 partner limits assumed): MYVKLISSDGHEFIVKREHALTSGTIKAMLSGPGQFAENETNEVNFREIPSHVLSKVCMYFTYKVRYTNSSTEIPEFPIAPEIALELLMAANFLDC
# T2 sequence (Q15370 whole entry partner): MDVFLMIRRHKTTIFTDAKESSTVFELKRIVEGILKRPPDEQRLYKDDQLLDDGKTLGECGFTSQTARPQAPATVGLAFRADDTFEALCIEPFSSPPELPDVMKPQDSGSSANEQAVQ
# Experimental: (§2) AlphaLISA assay was used to evaluate the in vitro ternary complex formation between target proteins (BCL-xL or BCL-2), PROTAC and E3 ligase (VCB complex). In each well, 5 nM His-tagged BCL-xL or BCL-2 proteins and 5 nM GST-VCB complex was incubated with varying concentrations of compounds in fourfold serial dilutions, to a final volume of 40 µl in a 96-well PCR plate. After incubation at room temperature for 30 min, 5 µl alpha glutathione-donor beads (Cat. No. 6765300, PerkinElmer) were added to each well (20 µg/ml final concentration) and incubated for another 15 min. Thereafter, 5 µL 6× His-acceptor beads were added to each well (20 µg/ml final concentration) and incubated for an additional 45 min at room temperature. Thereafter, 17 µl of each sample was transferred in adjacent wells of a 384-well proxy plate, and the plate was scanned using the Alpha program on Biotek’s Synergy Neo2 multimode plate reader. The data were expressed as average AlphaLISA signal and plotted against different concentrations of compounds using GraphPad Prism 9 software.
# [2] = target: T3, BCL-2/PROTAC/VCB ternary complex (Homo sapiens, UniProt P10415+P40337); test: AlphaLISA ternary complex formation, cell-free, BCL-2; type: binding; conditions: for Alpha (Alpha Endpoint read, Bcl-2 ternary complex formation): raw plate signal, duplicate wells
# T3 construct: pGEX-6P-1-VHL(54-213) (pDL2200) was constructed through Gibson assembly method; made in house; host or cells: bacterial culture (LB broth, IPTG induction)
# T3 sequence (P10415 1-211 limits assumed): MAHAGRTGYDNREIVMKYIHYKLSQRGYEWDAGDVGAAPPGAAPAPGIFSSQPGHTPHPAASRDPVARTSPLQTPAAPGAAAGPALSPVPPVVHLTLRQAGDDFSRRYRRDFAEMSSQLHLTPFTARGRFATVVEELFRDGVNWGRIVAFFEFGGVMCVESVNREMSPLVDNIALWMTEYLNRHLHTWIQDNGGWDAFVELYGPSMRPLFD
# T3 sequence (P40337 54-213 limits assumed): as the sequence (P40337 54-213 limits assumed) above
# T3 sequence (Q15369 17-112 partner limits assumed): as the sequence (Q15369 17-112 partner limits assumed) above
# T3 sequence (Q15370 whole entry partner): as the sequence (Q15370 whole entry partner) above
# Experimental: as §2
# BCL-2 = target: T4, BCL-2 (Homo sapiens, UniProt P10415); test: BCL-2 degradation by immunoblot in 293T cells; type: cell-based; conditions: for normalized BCL-2 protein content at 1 µM: HEK-293T, 293T, 1 μM 753b, Fig. 3d
# T4 construct: endogenous in cells
# T4 sequence (P10415 whole entry): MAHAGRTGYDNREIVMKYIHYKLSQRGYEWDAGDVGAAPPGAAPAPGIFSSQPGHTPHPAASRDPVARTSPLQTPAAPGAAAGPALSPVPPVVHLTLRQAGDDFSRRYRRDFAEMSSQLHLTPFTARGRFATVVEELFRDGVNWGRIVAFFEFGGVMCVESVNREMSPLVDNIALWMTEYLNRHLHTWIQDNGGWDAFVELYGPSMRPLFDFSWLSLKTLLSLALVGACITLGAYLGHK
# Outline: as §1
# [3] = compound 50000 nM, 2 technical replicates
# [4] = time point 1 (unit inferred), time 0 = 100, 3 replicates
SMILES,"AlphaLISA signal, BCL-xL/PROTAC/VCB ([1]; compound 0.19 nM)","AlphaLISA signal, BCL-xL/PROTAC/VCB ([1]; compound 3.05 nM)","AlphaLISA signal, BCL-xL/PROTAC/VCB ([1]; compound 12.21 nM)","AlphaLISA signal, BCL-xL/PROTAC/VCB ([1]; compound 48.83 nM)","AlphaLISA signal, BCL-xL/PROTAC/VCB ([1]; compound 195.31 nM)","AlphaLISA signal, BCL-xL/PROTAC/VCB ([1]; compound 781.25 nM)","AlphaLISA signal, BCL-xL/PROTAC/VCB ([1]; compound 3125 nM)","AlphaLISA signal, BCL-xL/PROTAC/VCB ([1]; compound 12500 nM)","AlphaLISA signal, BCL-xL/PROTAC/VCB [1, 3]","Alpha (Alpha Endpoint read, Bcl-2 ternary complex formation) ([2]; Conc. 0.0762939 nM)","Alpha (Alpha Endpoint read, Bcl-2 ternary complex formation) ([2]; Conc. 0.305176 nM)","Alpha (Alpha Endpoint read, Bcl-2 ternary complex formation) ([2]; Conc. 1.2207 nM)","Alpha (Alpha Endpoint read, Bcl-2 ternary complex formation) ([2]; Conc. 4.88281 nM)","Alpha (Alpha Endpoint read, Bcl-2 ternary complex formation) ([2]; Conc. 19.5312 nM)","Alpha (Alpha Endpoint read, Bcl-2 ternary complex formation) ([2]; Conc. 78.125 nM)","Alpha (Alpha Endpoint read, Bcl-2 ternary complex formation) ([2]; Conc. 312.5 nM)","Alpha (Alpha Endpoint read, Bcl-2 ternary complex formation) ([2]; Conc. 1250 nM)","Alpha (Alpha Endpoint read, Bcl-2 ternary complex formation) ([2]; Conc. 5000 nM)","Alpha (Alpha Endpoint read, Bcl-2 ternary complex formation) ([2]; Conc. 20000 nM)","AlphaLISA signal, BCL-xL/PROTAC/VCB ([1]; compound 0.76 nM)",further results
Cc1ncsc1-c1ccc([C@H](C)NC(=O)[C@@H]2C[C@@H](O)CN2C(=O)[C@@H](NC(=O)CCCCCCC(=O)N2CCN(C[C@@]3(C)CCC(c4ccc(Cl)cc4)=C(CN4CCN(c5ccc(C(=O)NS(=O)(=O)c6ccc(N[C@H](CCN7CCOCC7)CSc7ccccc7)c(S(=O)(=O)C(F)(F)F)c6)cc5)CC4)C3)CC2)C(C)(C)C)cc1 [753a],27453 and 33756,365306 and 327240,971358 and 937064,1567841 and 1437893,1256006 and 1243530,553159 and 551116,187859 and 162857,42241 and 44787,28218 and 24731,50534 and 53139,145058 and 154080,205372 and 217088,773602 and 780039,1990534 and 2015902,2343633 and 2509831,1692897 and 1765154,434318 and 434578,40362 and 44856,14264 and 11638,,"BCL-xL degradation (in words) (BCL-xL; 293T cells, 16 h): could only partially degrade BCL-xL"
Cc1ncsc1-c1ccc([C@H](C)NC(=O)[C@@H]2C[C@@H](O)CN2C(=O)[C@@H](NC(=O)CCCCCCC(=O)N2CCN(C[C@]3(C)CCC(c4ccc(Cl)cc4)=C(CN4CCN(c5ccc(C(=O)NS(=O)(=O)c6ccc(N[C@H](CCN7CCOCC7)CSc7ccccc7)c(S(=O)(=O)C(F)(F)F)c6)cc5)CC4)C3)CC2)C(C)(C)C)cc1 [753b],52786 and 55133,554325 and 621989,1164205 and 1155712,1828094 and 1838568,1687174 and 1602581,724516 and 720957,238805 and 237649,37696 and 47526,26805 and 26614,175483 and 157446,174555 and 132830,345223 and 378556,1458903 and 1528033,3478424 and 3254843,2950431 and 3084677,1886162 and 2006989,474662 and 509499,83238 and 74082,44557 and 25949,140034 and 175918,"DC50 (BCL-xL; 293T cells, 16 h, Fig. 3c, read-out: DC50 in degrading BCL-xL): 6 nM; normalized BCL-xL protein content at 1 µM (BCL-xL; [4]): 77%; normalized BCL-xL protein content at 1 µM (BCL-xL; time point 3): 55%; normalized BCL-xL protein content at 1 µM (BCL-xL; time point 6): 21%; normalized BCL-xL protein content at 1 µM (BCL-xL; time point 12): 13%; normalized BCL-xL protein content at 1 µM (BCL-xL; time point 16): 12%; normalized BCL-xL protein content at 1 µM (BCL-xL; time point 24): 8%; DC50 (BCL-2; 293T cells, 16 h, Fig. 3c, read-out: DC50 in degrading BCL-2): 48 nM; normalized BCL-2 protein content at 1 µM (BCL-2; [4]): 99%; normalized BCL-2 protein content at 1 µM (BCL-2; time point 3): 75%; normalized BCL-2 protein content at 1 µM (BCL-2; time point 6): 54%; normalized BCL-2 protein content at 1 µM (BCL-2; time point 12): 18%; normalized BCL-2 protein content at 1 µM (BCL-2; time point 16): 4%; normalized BCL-2 protein content at 1 µM (BCL-2; time point 24): 3%; normalized BCL-2 protein content at 1 µM (BCL-2; time point 36): 2%; in vitro ternary complex formation with BCL-xL (in words) ([1]; AlphaLISA, cell-free, Fig. 2c, 3e): stronger ternary complexes with BCL-xL/2 than those by 753a and DT2216; in vitro ternary complex formation with BCL-2 (in words) ([2]; AlphaLISA, cell-free, Fig. 2d, 3f): stronger ternary complexes with BCL-xL/2 than those by 753a and DT2216"
"CC1(C)CCC(c2ccc(Cl)cc2)=C(CN2CCN(c3ccc(C(=O)NS(=O)(=O)c4ccc(N[C@H](CCN5CCOCC5)CSc5ccccc5)c(S(=O)(=O)C(F)(F)F)c4)cc3)CC2)C1 [ABT263, navitoclax]",12691 and 9324,28316 and 16721,27882 and 17689,,22883 and 13939,12216 and 14015,19424 and 16133,17056 and 15505,14548 and 12360,13075 and 14039,25282 and 13828,26631 and 14952,23864 and 13192,,25354 and 12957,,25045 and 14016,,20320 and 11437,14711 and 17995,
